From ChEMBL document CHEMBL5120807, “Recent advances in the development of active hybrid molecules in the treatment of cardiovascular diseases” (Bioorg Med Chem, 2022)

Experiments:
[1] = biological target: Cholinesterase (Homo sapiens) (UniProt P06276); experiment: Inhibition of BuChE (unknown origin) by Ellman method; conditions: concentration not given here
[2] = biological target: Dual specificity protein kinase CLK1 (Mus musculus, UniProt P22518); experiment: Inhibition of mouse recombinant CLK1 expressed in bacterial system using GRSRSRSRSRSR as substrate incubated for 30 mins by ADP-Glo assay kit method
[3] = biological target: Serine/threonine-protein kinase pim-1 (Homo sapiens, UniProt P11309); experiment: Inhibition of human PIM1 expressed in bacterial system using histone H1 as substrate incubated for 30 mins by ADP-Glo assay kit method
[4] = Antagonist activity at beta1-adrenoceptor (unknown origin) at 1 uM; design: species or system Homo sapiens
[5] = Antioxidant activity assessed as ABTS radical scavenging activity; format: functional

Sequence of Serine/threonine-protein kinase pim-1 (P11309 whole entry): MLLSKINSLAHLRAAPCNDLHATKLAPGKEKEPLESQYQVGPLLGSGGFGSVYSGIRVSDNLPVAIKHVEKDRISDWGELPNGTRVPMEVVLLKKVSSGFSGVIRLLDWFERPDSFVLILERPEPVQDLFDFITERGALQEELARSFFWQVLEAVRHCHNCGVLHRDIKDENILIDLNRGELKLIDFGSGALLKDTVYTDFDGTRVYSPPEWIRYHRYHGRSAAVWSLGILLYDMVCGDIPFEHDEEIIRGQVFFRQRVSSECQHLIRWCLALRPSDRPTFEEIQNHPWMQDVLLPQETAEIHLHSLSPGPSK
Sequence of Dual specificity protein kinase CLK1 (P22518 whole entry): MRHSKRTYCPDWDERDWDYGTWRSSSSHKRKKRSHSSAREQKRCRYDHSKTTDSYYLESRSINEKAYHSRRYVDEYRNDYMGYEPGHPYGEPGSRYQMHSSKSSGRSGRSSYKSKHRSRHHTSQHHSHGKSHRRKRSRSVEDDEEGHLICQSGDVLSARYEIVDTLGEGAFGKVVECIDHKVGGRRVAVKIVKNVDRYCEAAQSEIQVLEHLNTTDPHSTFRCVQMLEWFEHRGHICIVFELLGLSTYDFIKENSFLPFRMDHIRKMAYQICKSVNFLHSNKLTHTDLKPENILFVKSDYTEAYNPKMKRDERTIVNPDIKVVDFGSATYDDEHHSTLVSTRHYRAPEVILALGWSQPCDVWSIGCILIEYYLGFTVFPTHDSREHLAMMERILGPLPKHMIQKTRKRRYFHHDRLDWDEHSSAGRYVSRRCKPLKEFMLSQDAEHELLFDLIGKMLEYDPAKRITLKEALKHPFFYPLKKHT
Sequence of Cholinesterase (Homo sapiens) (P06276 whole entry): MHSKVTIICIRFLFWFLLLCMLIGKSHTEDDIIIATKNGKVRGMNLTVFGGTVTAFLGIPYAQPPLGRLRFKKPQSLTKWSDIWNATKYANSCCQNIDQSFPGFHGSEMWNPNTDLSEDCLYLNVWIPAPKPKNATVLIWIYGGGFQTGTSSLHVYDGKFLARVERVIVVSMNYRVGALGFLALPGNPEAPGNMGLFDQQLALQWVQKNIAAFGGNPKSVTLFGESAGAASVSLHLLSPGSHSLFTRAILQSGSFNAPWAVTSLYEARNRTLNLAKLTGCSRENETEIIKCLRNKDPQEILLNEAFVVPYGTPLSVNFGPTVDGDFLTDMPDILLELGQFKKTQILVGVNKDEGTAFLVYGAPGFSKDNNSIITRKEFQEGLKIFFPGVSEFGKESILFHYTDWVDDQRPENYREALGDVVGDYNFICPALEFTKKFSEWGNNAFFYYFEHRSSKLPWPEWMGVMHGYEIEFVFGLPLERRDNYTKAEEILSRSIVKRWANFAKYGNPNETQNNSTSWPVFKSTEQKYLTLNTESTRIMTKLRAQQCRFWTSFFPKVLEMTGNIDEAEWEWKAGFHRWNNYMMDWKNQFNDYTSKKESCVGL

COc1cc(/C=C/C(=O)OCCOCCNC(=O)/C=C/c2ccc(OC(C)=O)c(OC(C)=O)c2)ccc1OC(C)=O
inhibition [1]: 95%

CN1C(=O)/C(=C2/SC(=S)N(N)C2=O)c2cc(Br)ccc21
IC50 [2]: > 10000 nM | IC50 [3]: 770 nM

COc1cc2c(cc1OC)CC(=O)N(CCCN(C)C[C@@H](O)COc1ccccc1C)CC2
IC50 [4]: 10400 nM

NN1C(=O)/C(=C2\C(=O)Nc3ccc(Br)cc32)SC1=S
IC50 [2]: 4670 nM | IC50 [3]: 1800 nM

CCCCCCCCCCCCCCCCOC(=O)C1=C(C)NC(C)=C(C(=O)OCCCCCCCCCCCCCCCC)C1c1ccccc1[N+](=O)[O-]
IC50 [5]: 2450 nM
